Laboratory results as given in patent US20120301895A1, “METHODS OF MODULATING BINDING OF SON OF SEVENLESS TO PHOSPHATIDIC ACID AND IDENTIFYING COMPOUNDS THAT MODULATE SUCH BINDING” (THE RESEARCH FOUNDATION OF STATE UNIVERSITY OF NEW YORK, priority 2007, published 2012).

Assays:
[1] = system: S6K and 4E-BP1; test: Phosphorylation of mTOR substrates S6K and 4E-BP1 in MDA-MB-231 cells (Western blot); format: cell-based, human; conditions: honokiol 20 μM, 0.5% serum
Description: In FIG. 15A, MDA-MB-231 cells were plated in DMEM with 10% serum. 48 hr later the cells were shifted to 0.5% for 16 hr. Honokiol (20 μM) or control ethanol was then added for the indicated times. The cells were then harvested and analyzed for levels of S6K, phosphorylated S6K (P-S6K), 4E-BP1, and P-4E-BP1 by Western blot analysis as described previously (Zheng et al., “Phospholipase D Couples Survival and Migration Signals in Response to Stress in Human Breast Cancer Cells,” J. Biol. Chem. 281:15862-8 (2006), which is hereby incorporated by reference in its entirety). In FIG. 15B, 786-O cells were plated and then shifted to media containing 0.5% serum 24 hr later. 18 hr later, the cells were treated with 1-Bt0H (0.8%), honokiol (Hon) (20 μM), and t-BtOH (0.8%) as indicated. Cell lysates were prepared 4 hr later and examined for HIF2α and actin expression by Western lot analysis. The experiment shown is representative of two independent experiments.
Extraction of proteins from cultured cells and Western blot analysis of extracted proteins was performed using the ECL system (Amersham) as described previously (Chen et al., “Alternative Phospholipase D/mTOR Survival Signal in Human Breast Cancer Cells,” Oncogene 24:672-9 (2005), which is hereby incorporated by reference in its entirety). […]

[2] = system: PLD activity in Calu-1 cells; test: In vivo PLD activity in Calu-1 lung cancer cells; format: cell-based, human; conditions: honokiol 20 μM, 4 hr
Description: In FIG. 17A, T24 and Calu1 cells (obtained from the American Type Culture Collection) were plated in DMEM containing 10% serum for 48 hr and then shifted to either 10% serum or 0.5% serum overnight as indicated. Honokiol (20 μM) or control ethanol was then added for 4 hr as indicated. [^3H]-Myristate was added with the honokiol. After 4 hr, BtOH (0.7%) was added for 20 min, at which time the cells were harvested and the level of phosphatidyl-BtOH (P-Bt) was determined as in FIGS. 12A-C. The experiments shown are representative of at least two independent experiments. In FIG. 17B, T24 and Calu-1 cells were plated in DMEM with 10% serum for 48 hr then changed to DMEM containing either 10% or 0.5% serum overnight as indicated. […]
For in vivo PLD activity, cells were plated in 60 mm culture dishes in DMEM with 10% serum at a density that would allow them to grow to about 80% confluence after 2 days, then cells were shifted to DMEM containing 0.5% or 10% serum as indicated in the figure legends overnight. […] Briefly, PLD activity was measured by the release of [methyl-^3H] choline from [choline-methyl-^3H]dipalmitoyl-phosphatidylcholine. […] Free [methyl-^3H] choline was separated from precipitated lipids and proteins by centrifugation and was analyzed by liquid scintillation counting. […]

## C=CCc1ccc(O)c(-c2ccc(O)c(CC=C)c2)c1 [honokiol, Honokiol]
[1]
  phosphorylation of 4E-BP1: suppressed
  phosphorylation of S6K: suppressed
[2]; 0.5% serum
  stress-induced PLD activity: suppressed
[2]; 10% serum
  PLD activity observed in the presence of serum: little effect
